US20070185161A1, “Bicyclic substituted indole-derivative steroid hormone nuclear receptor modulators” (priority 2004, published 2007)

What follows are compounds tested against T1, glucocorticoid receptor (A549 human lung epithelial cell extract) (Homo sapiens, UniProt P04150) (assay: Glucocorticoid Receptor Binding Assay (Method 1)). Settings: [3H]-dexamethasone, racemic mixture unless otherwise indicated, read-out: GR Ki (nM) Method 1.
T1 construct: host or cells: A549 human lung epithelial cells
T1 sequence (P04150 1-777): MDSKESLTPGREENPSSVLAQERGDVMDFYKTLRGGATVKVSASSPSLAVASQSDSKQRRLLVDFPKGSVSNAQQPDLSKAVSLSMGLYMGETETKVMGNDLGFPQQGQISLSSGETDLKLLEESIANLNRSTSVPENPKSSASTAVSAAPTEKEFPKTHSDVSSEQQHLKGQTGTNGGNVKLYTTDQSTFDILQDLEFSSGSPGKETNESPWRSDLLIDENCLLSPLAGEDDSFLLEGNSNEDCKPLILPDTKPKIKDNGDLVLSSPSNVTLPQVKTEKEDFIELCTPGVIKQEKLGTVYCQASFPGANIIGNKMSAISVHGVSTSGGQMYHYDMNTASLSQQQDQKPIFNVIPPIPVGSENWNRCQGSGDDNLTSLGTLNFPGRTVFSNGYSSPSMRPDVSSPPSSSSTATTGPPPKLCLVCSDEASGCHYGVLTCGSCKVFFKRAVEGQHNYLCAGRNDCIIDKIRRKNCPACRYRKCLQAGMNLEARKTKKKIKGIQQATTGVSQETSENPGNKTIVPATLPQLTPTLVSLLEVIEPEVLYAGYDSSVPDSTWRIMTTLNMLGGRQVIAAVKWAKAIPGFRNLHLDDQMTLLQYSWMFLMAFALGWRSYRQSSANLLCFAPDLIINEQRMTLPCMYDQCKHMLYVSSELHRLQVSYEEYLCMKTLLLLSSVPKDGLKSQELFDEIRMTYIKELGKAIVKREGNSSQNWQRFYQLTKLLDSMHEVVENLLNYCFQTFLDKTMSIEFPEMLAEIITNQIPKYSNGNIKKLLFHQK
Method: A549 human lung epithelial cells (ATCC) are grown at a scale where gram quantity cell pellets are obtained. Harvested cell pellets are washed twice in cold phosphate buffered saline, centrifuged, and resuspended in cold assay binding buffer. The assay binding buffer consists of 10% glycerol, 50 mM Tris-HCl (pH7.2), 75 mM sodium chloride, 1.5 mM magnesium chloride, 1.5 mM EDTA, and 10 mM sodium molybdate. Cell suspensions were lysed via sonication, centrifuged, and the “extract” supernatant is snap frozen and stored at −80 C until needed.
GR binding assays are performed in a final volume of 140 ul containing 50-200 ug of A549 cell extract and 1.86 nM [^3H]-dexamethasone (Amersham) plus varying concentrations of test compound or vehicle. Briefly, assays are prepared at RT in 96-well Fisher 3356 plates, each well containing 100 ul of A549 cell extract, 20 ul of [^3H]-dexamethasone, and 20 ul of test compound/vehicle. Incubations are carried out at 4 degrees Celsius for 16 hours. After incubation, 70 ul of 3× dextran-coated charcoal solution is added to each reaction, mixed, and incubated for 8 minutes at RT. 3×-dextran-coated charcoal solution consists of 250 ml assay binding buffer, 3.75 g Norit A charcoal (Sigma), and 1.25 g dextran T-70 (Amersham). Charcoal/unbound radioligand complexes are removed by centrifugation of the plate and 140 ul of supernatant from each well is transferred to another 96 well Optiplate (Packard Instruments). 200 ul of Microscint-20 scinillant (Packard Instruments) is added to each well and amount of receptor bound radioligand is determined using Packard Instruments TopCount instrument.
IC50 values, defined as the concentration of test compound required to decrease [^3H]-dexamethasone binding by 50%, are then determined. Ki values for each respective test compound can then be calculated by application of the Cheng-Prusoff equation as described in Cheng et al., Relationship Between The Inhibition Constant (Ki) and The Concentration of Inhibitor Which Causes 50% Inhibition (IC50) of an Enzymatic Reaction, Biochem. Pharmacol., 22: 3099-31088; (1973).

Ki	SMILES
≤ 500 nM	CCC1(c2c[nH]c3c(NS(C)(=O)=O)cccc23)CCc2cc(F)ccc21 (racemic) [Example 1, N-[3-(1-ethyl-5-fluoro-indan-1-yl)-1H-indol-7-yl]-methanesulfonamide]
≤ 500 nM	CC1(c2c[nH]c3c(NS(C)(=O)=O)cccc23)CCc2cc(F)ccc21 (racemic) [Example 21, N-[3-(5-Fluoro-1-methyl-indan-1-yl)-1H-indol-7-yl]-methanesulfonamide]
≤ 500 nM	CCC1(c2c[nH]c3c(NS(C)(=O)=O)cccc23)CCc2cc(F)cc(F)c21 (racemic) [Example 23, N-[3-(1-Ethyl-5,7-difluoro-indan-1-yl)-1H-indol-7-yl]-methanesulfonamide]
≤ 500 nM	CC1(c2c[nH]c3c(NS(C)(=O)=O)cccc23)CCCc2cc(F)ccc21 (racemic) [Example 28, N-[3-(6-Fluoro-1-methyl-1,2,3,4-tetrahydro-naphthalen-1-yl)-1H-indol-7-yl]-methanesulfonamide]
≤ 500 nM	CCC1(c2c[nH]c3c(NS(C)(=O)=O)cccc23)CCCc2cc(F)ccc21 (racemic) [Example 29, N-[3-(1-Ethyl-6-fluoro-1,2,3,4-tetrahydro-naphthalen-1-yl)-1H-indol-7-yl]-methanesulfonamide]
≤ 500 nM	CCC1(c2c[nH]c3c(NS(C)(=O)=O)cccc23)CCCc2cc(F)cc(F)c21 (racemic) [Example 31, N-[3-(1-Ethyl-6,8-difluoro-1,2,3,4-tetrahydro-naphthalen-1-yl)-1H-indol-7-yl]-methanesulfonamide]
≤ 500 nM	CCC1(c2c[nH]c3c(NS(C)(=O)=O)cccc23)CCc2cc(F)ccc21 (single isomer, unassigned) [Example 1A, N-[3-(1-ethyl-5-fluoro-indan-1-yl)-1H-indol-7-yl]-methanesulfonamide]
≤ 500 nM	CC1(c2c[nH]c3c(NS(C)(=O)=O)cccc23)CCc2cc(F)ccc21 (single isomer, unassigned) [Example 21A, N-[3-(5-Fluoro-1-methyl-indan-1-yl)-1H-indol-7-yl]-methanesulfonamide]
≤ 500 nM	CC1(c2c[nH]c3c(NS(C)(=O)=O)cccc23)CCc2cc(F)ccc21 (single isomer, unassigned) [Example 21B, N-[3-(5-Fluoro-1-methyl-indan-1-yl)-1H-indol-7-yl]-methanesulfonamide]
≤ 500 nM	CCC1(c2c[nH]c3c(NS(C)(=O)=O)cccc23)CCc2cc(F)cc(F)c21 (single isomer, unassigned) [Example 23A, N-[3-(1-Ethyl-5,7-difluoro-indan-1-yl)-1H-indol-7-yl]-methanesulfonamide]
≤ 10000 nM	CCC1(c2c[nH]c3c(NS(C)(=O)=O)cccc23)CCc2cc(F)cc(F)c21 (single isomer, unassigned) [Example 23B, N-[3-(1-Ethyl-5,7-difluoro-indan-1-yl)-1H-indol-7-yl]-methanesulfonamide]
≤ 500 nM	CC1(c2c[nH]c3c(NS(C)(=O)=O)cccc23)CCCc2cc(F)ccc21 (single isomer, unassigned) [Example 28A, N-[3-(6-Fluoro-1-methyl-1,2,3,4-tetrahydro-naphthalen-1-yl)-1H-indol-7-yl]-methanesulfonamide]
≤ 500 nM	CC1(c2c[nH]c3c(NS(C)(=O)=O)cccc23)CCCc2cc(F)ccc21 (single isomer, unassigned) [Example 28B, N-[3-(6-Fluoro-1-methyl-1,2,3,4-tetrahydro-naphthalen-1-yl)-1H-indol-7-yl]-methanesulfonamide]
≤ 500 nM	CCC1(c2c[nH]c3c(NS(C)(=O)=O)cccc23)CCCc2cc(F)ccc21 (single isomer, unassigned) [Example 29A, N-[3-(1-Ethyl-6-fluoro-1,2,3,4-tetrahydro-naphthalen-1-yl)-1H-indol-7-yl]-methanesulfonamide]
≤ 500 nM	CCC1(c2c[nH]c3c(NS(C)(=O)=O)cccc23)CCCc2cc(F)ccc21 (single isomer, unassigned) [Example 29B, N-[3-(1-Ethyl-6-fluoro-1,2,3,4-tetrahydro-naphthalen-1-yl)-1H-indol-7-yl]-methanesulfonamide]
≤ 500 nM	CC1(c2c[nH]c3c(NS(C)(=O)=O)cccc23)CCc2ccccc21 (stereo not drawn) [Example 20, N-[3-(1-Methyl-indan-1-yl)-1H-indol-7-yl]-methanesulfonamide]
≤ 500 nM	CC1(c2c[nH]c3c(NS(C)(=O)=O)cccc23)CCc2cc(-n3cccn3)ccc21 (stereo not drawn) [Example 24, N-[3-(1-Methyl-5-pyrazol-1-yl-indan-1-yl)-1H-indol-7-yl]-methanesulfonamide]
≤ 500 nM	CS(=O)(=O)Nc1cccc2c(C3CCCc4ccccc43)c[nH]c12 (stereo not drawn) [Example 25, N-[3-(1,2,3,4-Tetrahydro-naphthalen-1-yl)-1H-indol-7-yl]-methanesulfonamide]
≤ 500 nM	CC1(c2c[nH]c3c(NS(C)(=O)=O)cccc23)CCCc2ccccc21 (stereo not drawn) [Example 26, N-[3-(1-Methyl-1,2,3,4-tetrahydro-naphthalen-1-yl)-1H-indol-7-yl]-methanesulfonamide]
≤ 500 nM	CCC1(c2c[nH]c3c(NS(C)(=O)=O)cccc23)CCCc2ccccc21 (stereo not drawn) [Example 27, N-[3-(1-Ethyl-1,2,3,4-tetrahydro-naphthalen-1-yl)-1H-indol-7-yl]-methanesulfonamide]
≤ 500 nM	CC1(c2c[nH]c3c(NS(C)(=O)=O)cccc23)CCOc2ccccc21 (stereo not drawn) [Example 32, N-[3-(4-Methyl-chroman-4-yl)-1H-indol-7-yl]-methanesulfonamide]
≤ 500 nM	CC1(c2c[nH]c3c(NS(C)(=O)=O)cccc23)CCOc2ccc(F)cc21 (stereo not drawn) [Example 33, N-[3-(6-Fluoro-4-methyl-chroman-4-yl)-1H-indol-7-yl]-methanesulfonamide]
≤ 500 nM	CC1(c2c[nH]c3c(NS(C)(=O)=O)cccc23)CCSc2ccccc21 (stereo not drawn) [Example 37, N-[3-(4-Methyl-thiochroman-4-yl)-1-indol-7-yl]-methanesulfonamide]
≤ 500 nM	CC1(c2c[nH]c3c(NS(C)(=O)=O)cccc23)CCCCc2ccccc21 (stereo not drawn) [Example 38, N-[3-(5-Methyl-6,7,8,9-tetrahydro-5H-benzocyclohepten-5-yl)-1H-indol-7-yl]-methanesulfonamide]
